SMILES strings stand for the structures.

In this experiment the target is T1, Sphingomyelin phosphodiesterase (Homo sapiens) (UniProt P17405).
T1 sequence (whole entry): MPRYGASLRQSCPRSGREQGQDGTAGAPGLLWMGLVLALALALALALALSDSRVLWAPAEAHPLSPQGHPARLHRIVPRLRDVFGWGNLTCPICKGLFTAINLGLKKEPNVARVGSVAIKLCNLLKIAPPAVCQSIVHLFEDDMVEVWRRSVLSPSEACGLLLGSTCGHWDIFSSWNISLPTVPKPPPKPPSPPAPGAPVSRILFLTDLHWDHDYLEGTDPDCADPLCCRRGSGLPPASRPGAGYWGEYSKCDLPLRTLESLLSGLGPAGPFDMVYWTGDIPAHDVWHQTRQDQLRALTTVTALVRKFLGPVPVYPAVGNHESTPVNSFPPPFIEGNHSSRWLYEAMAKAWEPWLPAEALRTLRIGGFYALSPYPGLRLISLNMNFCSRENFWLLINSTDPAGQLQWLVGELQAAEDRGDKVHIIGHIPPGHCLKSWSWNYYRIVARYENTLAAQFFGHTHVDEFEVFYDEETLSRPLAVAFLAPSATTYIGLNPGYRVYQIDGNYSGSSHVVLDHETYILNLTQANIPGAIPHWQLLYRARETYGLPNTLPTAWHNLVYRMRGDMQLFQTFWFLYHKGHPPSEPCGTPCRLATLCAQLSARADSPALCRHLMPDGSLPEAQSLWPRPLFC
Put plainly: Compound was evaluated as a substrate for human placental acidic sphingomyelinase utilizing the usual substrate C14-labeled sphingomyelin.

In the case of `CCCCCCCCCCCCC/C=C/[C@@H](O)[C@H](COP(=O)(O)OCC[N+](C)(C)CCNS(=O)(=O)c1cccc2c(N(C)C)cccc12)NC(=O)CCCCCCCCCCCCCCCCCCC`, the Cleavage rate turned out to be 1.32 nM U-1 hr-1.

Take `CCCCCCCCCCCCC/C=C/[C@@H](O)[C@H](COP(=O)(O)OCCCCCCNc1ccc([N+](=O)[O-])c2nonc12)NC(=O)CCCCCNC(=O)CCCC[C@@H]1SC[C@@H]2NC(=O)N[C@@H]21`: the Cleavage rate was 0.29 nM U-1 hr-1. On to `CCCCCCCCCCCCC/C=C/[C@@H](O)[C@H](COP(=O)(O)OCCCCNS(=O)(=O)c1cccc2c(N(C)C)cccc12)NC(=O)CCCCCNC(=O)CCCC[C@@H]1SC[C@@H]2NC(=O)N[C@@H]21`, for which the Cleavage rate is 0.51 nM U-1 hr-1. In turn, `CCCCCCCCCCCCC/C=C/[C@@H](O)[C@H](COP(=O)([O-])OCC[N+](C)(C)C)NC(=O)CCCCCCCCCCCCCCCCCCC` gave a Cleavage rate of 1.72 nM U-1 hr-1.

Values taken from ChEMBL document CHEMBL1152073, “Synthesis of novel fluorescently labeled sphingomyelin derivatives useful for sphingomyelinase assay” (Bioorg Med Chem Lett, 1997).
